Reference: patent US8101760B2, “Glucocorticoid receptor modulator and methods of use” (Eli Lilly and Company, priority 2007, dated 2012)

Columns and labels:
[1] = target: T1, human glucocorticoid receptor (GR) (Homo sapiens, UniProt P04150); test: Nuclear hormone receptor functional modulation assay (GRE-luciferase, HEK293), GR; format: cell-based
T1 construct: expressed in transfected cells; host or cells: HEK293, transient transfection (Fugene), CMV promoter plasmid
T1 sequence (P04150 1-777): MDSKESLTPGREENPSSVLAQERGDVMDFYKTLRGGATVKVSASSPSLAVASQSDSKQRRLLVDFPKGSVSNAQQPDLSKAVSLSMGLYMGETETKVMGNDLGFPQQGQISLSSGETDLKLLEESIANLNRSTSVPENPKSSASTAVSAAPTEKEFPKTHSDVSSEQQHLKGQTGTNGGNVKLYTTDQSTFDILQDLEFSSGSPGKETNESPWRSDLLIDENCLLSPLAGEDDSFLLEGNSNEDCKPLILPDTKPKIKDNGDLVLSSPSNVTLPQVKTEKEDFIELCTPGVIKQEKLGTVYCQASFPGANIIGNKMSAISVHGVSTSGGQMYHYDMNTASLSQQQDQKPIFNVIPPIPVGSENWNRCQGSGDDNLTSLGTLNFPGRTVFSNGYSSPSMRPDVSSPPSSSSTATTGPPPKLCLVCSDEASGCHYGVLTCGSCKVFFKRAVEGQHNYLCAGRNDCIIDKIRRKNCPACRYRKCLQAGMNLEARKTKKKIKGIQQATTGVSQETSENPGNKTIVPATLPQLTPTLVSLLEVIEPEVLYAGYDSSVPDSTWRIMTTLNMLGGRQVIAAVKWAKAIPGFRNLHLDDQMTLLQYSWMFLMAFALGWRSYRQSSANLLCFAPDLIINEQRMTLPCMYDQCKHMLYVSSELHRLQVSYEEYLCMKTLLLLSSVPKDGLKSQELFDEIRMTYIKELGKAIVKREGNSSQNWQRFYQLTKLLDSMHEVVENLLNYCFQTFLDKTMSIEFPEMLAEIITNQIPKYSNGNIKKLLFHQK
From the text: (§1) The solvents, reagents, and ligands employed in the functional assay are readily available from commercial sources, or can be prepared by one of ordinary skill in the art.
(§2) Human embryonic kidney HEK293 cells are transfected with steroid hormone receptor and reporter gene plasmids using Fugene™ (Roche Diganostics) transfection reagent. Briefly, the reporter plasmid containing two copies of probasin ARE (androgen response element 5′GGTTCTTGGAGTACT3′ (SEQ ID NO:1)) and TK(thymidine kinase) promoter upstream of the luciferase reporter cDNA, is transfected into HEK293 cells with a plasmid constitutively expressing human androgen receptor (AR) using viral CMV(cytomegalovirus) promoter. The reporter plasmid containing two copies of GRE (glucocorticoid response element 5′TGTACAGGATGTTCT′3 (SEQ ID NO:2)) and TK promoter upstream of the luciferase reporter cDNA is transfected with a plasmid constitutively expressing either human glucocorticoid receptor (GR), human mineralocorticoid receptor (MR), or human progesterone receptor (PR) using viral CMV promoter. Cells are transfected in T150 cm flasks in DMEM media with 5% charcoal-stripped Fetal Bovine Serum (FBS). […] In the antagonist mode for the assays, low concentrations of agonist for each respective receptor are added to the media (0.25 nM dexamethasone for GR, 0.3 nM of methyltrienolone for AR, 0.05 nM of promegestone for PR and 0.05 nM aldosterone for MR), and the ability of test compound to antagonize the agonist response is determined. After 24 hours of incubation with test compounds, cells are lysed and luciferase activity is determined using standard techniques.
(§3) Data are fitted to a four parameter-fit logistic curve fit to determine EC50 values. […] IC50 values may be determined similarly using antagonist mode assay data. Percent inhibitions may also be determined relative to the response in the presence of agonist alone, as described above.

[2] = target: T2, human androgen receptor (AR) (Homo sapiens, UniProt P10275); test: Nuclear hormone receptor functional modulation assay (ARE-luciferase, HEK293), AR; format: cell-based
T2 construct: expressed in transfected cells; host or cells: HEK293, transient transfection (Fugene), CMV promoter plasmid
T2 sequence (P10275 1-920): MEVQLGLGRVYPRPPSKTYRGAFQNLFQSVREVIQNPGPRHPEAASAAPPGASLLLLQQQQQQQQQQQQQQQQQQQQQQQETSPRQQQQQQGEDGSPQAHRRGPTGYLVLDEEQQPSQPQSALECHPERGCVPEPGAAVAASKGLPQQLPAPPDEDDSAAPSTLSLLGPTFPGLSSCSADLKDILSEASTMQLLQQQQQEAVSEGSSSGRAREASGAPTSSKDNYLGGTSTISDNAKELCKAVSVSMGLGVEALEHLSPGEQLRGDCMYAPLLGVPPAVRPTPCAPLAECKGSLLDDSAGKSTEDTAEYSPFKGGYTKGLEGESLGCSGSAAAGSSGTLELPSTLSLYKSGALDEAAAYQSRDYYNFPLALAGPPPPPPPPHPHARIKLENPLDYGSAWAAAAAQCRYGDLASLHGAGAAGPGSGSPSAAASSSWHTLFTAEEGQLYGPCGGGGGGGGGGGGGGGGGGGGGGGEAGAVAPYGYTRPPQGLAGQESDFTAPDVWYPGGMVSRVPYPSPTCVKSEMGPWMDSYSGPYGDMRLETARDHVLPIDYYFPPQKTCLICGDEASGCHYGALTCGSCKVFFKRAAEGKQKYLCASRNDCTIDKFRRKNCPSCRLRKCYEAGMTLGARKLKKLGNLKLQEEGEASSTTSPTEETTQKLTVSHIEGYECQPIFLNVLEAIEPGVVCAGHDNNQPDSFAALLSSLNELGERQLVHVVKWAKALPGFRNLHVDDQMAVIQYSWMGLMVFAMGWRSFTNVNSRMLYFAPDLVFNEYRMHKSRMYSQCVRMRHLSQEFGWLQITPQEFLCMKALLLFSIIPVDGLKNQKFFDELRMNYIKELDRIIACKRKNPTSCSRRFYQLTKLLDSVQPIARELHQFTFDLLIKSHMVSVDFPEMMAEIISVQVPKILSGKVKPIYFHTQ
From the text: as §1, §2, §3

[3] = Bioavailability and plasma exposure after oral administration to test animals; format: in vivo
[4] = test system: human hepatocyte cultures; test: Metabolism in human hepatocyte cultures in vitro; format: in vitro ADME
[5] = Metabolic profiling of plasma after in vivo administration, monkey
[6] = In vitro assays of genotoxic potential
[7] = Hygroscopicity and solid-state stability; format: physicochemical

Emax ([1]; HEK293, partial agonist activity, read-out: maximal efficacy in inducing GR/GRE-mediated gene transcription (transactivation)): < 50%
EC50 ([1]; agonist mode, activating transcription, mean of 3): 1.9 nM
GR % Eff. ([1]; percent efficacy at 10 μM relative to 100 nM dexamethasone, mean of 3): 45.7%
EC50 ([2]; agonist mode, activating transcription): > 10000 nM
modulation of gene expression mediated by AR ([2]; functional modulation, in words): only limited activity
AR % Eff. ([2]; percent efficacy at 10 μM relative to 100 nM methyltrienolone, mean of 3): 2.4%
bioavailability [3]: good
plasma exposure [3]: good
metabolism when incubated with human hepatocyte cultures [4]: only minor metabolism
metabolites in plasma [5]: no metabolites detected
circulating entity in plasma ([5]; after in vivo administration): major circulating entity
hygroscopicity [7]: non-hygroscopic
stability ([7]; increased temperature, relative humidity, and light exposure): stable
Structure (SMILES): CC/C(=C1\c2ccc(Cl)cc2OCc2ncccc21)c1cccc(NS(C)(=O)=O)c1 [Compound (I), (E)-N-{3-[1-(8-Chloro-11H-10-oxa-1-aza-dibenzo[a,d]cyclohepten-5-ylidene)-propyl]-phenyl}-methanesulfonamide]
genotoxic potential [6]: non-genotoxic
